These results are taken from paper PMC7176092, “Development of the first in vivo GPR17 ligand through an iterative drug discovery pipeline: A novel disease-modifying strategy for multiple sclerosis” (PLoS ONE, 2020).

Several values for one entry are separate records, joined by “and”; a condition that tells them apart may be missing. Identical values can stand only once. Like-named read-outs stand apart in the source and are kept apart here.

One experiment deals with 40 human receptors. As to the kind of experiment: Selectivity profile on class-A GPCRs (Eurofins Cerep). As to conditions: 0.1 μM; binding and cellular assays. The source says: A subset of GPCRs with a relevant role in demyelination/remyelination was also included in this analysis.
The target in the next experiment is T1, ADR1B (Homo sapiens, UniProt P35368).
T1 construct: Eurofins Cerep (external service)
T1 sequence (P35368 1-520): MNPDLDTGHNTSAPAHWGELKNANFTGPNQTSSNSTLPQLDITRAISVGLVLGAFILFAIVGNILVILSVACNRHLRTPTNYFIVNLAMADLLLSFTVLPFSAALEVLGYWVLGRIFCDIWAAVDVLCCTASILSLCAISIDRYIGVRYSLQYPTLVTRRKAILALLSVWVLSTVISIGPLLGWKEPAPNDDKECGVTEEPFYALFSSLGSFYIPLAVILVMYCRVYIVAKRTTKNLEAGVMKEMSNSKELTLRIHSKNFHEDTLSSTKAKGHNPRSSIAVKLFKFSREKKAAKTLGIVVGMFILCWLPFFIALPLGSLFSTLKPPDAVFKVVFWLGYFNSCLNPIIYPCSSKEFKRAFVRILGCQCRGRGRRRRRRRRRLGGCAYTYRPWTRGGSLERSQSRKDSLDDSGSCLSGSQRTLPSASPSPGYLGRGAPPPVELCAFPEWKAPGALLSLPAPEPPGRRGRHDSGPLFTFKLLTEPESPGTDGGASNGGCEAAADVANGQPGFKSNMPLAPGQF
Briefly: Binding assay ADR1B. As to conditions: 100 nM.

The target in another experiment is T2, CysLT2 (Homo sapiens, UniProt Q9NS75).
T2 construct: Eurofins Cerep (external service)
T2 sequence (Q9NS75 1-346): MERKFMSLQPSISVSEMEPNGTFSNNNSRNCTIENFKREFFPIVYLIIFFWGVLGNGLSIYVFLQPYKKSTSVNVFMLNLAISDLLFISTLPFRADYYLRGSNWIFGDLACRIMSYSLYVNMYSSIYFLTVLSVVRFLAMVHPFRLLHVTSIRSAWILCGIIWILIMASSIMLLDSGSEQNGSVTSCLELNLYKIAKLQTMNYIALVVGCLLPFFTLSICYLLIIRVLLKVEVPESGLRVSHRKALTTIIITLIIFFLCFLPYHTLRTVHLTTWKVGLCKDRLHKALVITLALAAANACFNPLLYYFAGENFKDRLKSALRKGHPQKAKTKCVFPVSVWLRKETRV
Briefly: Binding assay CysLT2. The conditions noted are these: 100 nM.

The target in a further experiment is T3, M4 (Homo sapiens, UniProt P08173).
T3 construct: Eurofins Cerep (external service)
T3 sequence (P08173 1-479): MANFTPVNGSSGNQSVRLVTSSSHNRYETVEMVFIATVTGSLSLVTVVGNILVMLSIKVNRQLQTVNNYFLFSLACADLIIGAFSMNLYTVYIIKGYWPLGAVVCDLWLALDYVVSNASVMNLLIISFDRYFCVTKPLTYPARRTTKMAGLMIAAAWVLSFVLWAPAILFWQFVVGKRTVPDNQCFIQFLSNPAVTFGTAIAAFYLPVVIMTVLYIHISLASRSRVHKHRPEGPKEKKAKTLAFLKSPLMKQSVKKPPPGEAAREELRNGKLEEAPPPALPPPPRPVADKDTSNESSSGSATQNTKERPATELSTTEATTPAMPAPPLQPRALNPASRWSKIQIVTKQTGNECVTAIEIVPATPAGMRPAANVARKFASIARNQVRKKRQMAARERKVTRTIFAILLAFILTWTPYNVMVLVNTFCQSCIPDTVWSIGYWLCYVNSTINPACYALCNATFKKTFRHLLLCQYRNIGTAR
Briefly: Binding assay M4. The conditions noted are these: 100 nM.

The target in another experiment is T4, CCR9 (Homo sapiens, UniProt P51686).
T4 sequence (P51686 1-369): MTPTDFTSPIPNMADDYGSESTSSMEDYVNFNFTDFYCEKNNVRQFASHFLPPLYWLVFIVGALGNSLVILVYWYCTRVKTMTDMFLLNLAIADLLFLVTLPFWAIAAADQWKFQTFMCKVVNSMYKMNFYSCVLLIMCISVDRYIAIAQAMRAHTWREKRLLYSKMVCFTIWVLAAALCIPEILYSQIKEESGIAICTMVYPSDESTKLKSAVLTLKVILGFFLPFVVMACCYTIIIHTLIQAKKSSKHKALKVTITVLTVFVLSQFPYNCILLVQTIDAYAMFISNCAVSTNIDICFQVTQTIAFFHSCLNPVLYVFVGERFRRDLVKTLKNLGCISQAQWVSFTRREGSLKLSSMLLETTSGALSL
Briefly: Cellular functional assay CCR9.

In another experiment the target is T5, CXCR1 (Homo sapiens, UniProt P25024).
T5 sequence (P25024 1-350): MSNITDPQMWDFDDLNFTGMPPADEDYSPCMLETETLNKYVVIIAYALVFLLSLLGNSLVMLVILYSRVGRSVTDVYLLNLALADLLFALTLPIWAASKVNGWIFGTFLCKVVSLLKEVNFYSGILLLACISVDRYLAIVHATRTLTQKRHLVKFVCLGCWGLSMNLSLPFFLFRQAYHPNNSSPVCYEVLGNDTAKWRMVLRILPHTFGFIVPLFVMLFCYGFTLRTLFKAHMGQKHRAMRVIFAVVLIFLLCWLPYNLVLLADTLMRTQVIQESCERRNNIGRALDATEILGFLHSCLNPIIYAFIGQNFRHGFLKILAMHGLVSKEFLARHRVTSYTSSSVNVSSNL
As to the kind of experiment: Cellular functional assay CXCR1.

A further experiment concerns the target T6, CX3CR1 (Homo sapiens, UniProt P49238).
T6 sequence (P49238 1-355): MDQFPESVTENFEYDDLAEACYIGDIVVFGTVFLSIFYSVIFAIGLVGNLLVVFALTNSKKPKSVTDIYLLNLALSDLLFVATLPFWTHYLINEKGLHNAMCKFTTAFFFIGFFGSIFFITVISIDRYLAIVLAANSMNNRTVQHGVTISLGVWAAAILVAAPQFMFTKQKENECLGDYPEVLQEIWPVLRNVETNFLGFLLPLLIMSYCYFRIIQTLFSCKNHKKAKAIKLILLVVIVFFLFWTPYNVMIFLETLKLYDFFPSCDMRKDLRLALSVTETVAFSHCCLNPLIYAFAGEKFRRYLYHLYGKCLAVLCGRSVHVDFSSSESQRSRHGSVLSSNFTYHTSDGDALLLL
Briefly: Cellular functional assay CX3CR1.

The mark [1] stands for this setting: mean of 2, read-out: % Of control specific binding, Mean.
[2] abbreviates: read-out: % Inhibition of control specific binding.
Where [3] appears, read: single replicates 1 and 2, 0.1 µM.
Where [4] appears, read: single replicates 1 and 2, read-out: % Of control specific binding.
The mark [5] stands for this setting: antagonist effect, 100 nM, single replicates 1st and 2nd, 0.1 µM.
[6] abbreviates: read-out: % Inhibition of control agonist response.
Where [7] appears, read: read-out: Agonist Response (% of Control), Mean, antagonist effect, 100 nM, mean of 2.
The mark [8] stands for this setting: read-out: Agonist Response (% of Control), antagonist effect, 100 nM, single replicates 1st and 2nd.

In the case of `Cc1ccc(-c2nnc(SCC(=O)Nc3nccs3)[nH]2)cc1` [Compound 9], the “Pharmacological activity on the tested GPCRs” value in the experiment with 40 human receptors is listed as “no significant pharmacological activity”. The remaining activity at 0.1 µM at ADR1B (setting [1]) is 89.8%; at CysLT2 (setting [1]), 101%; at CysLT2 (setting [4]) it was 97.9%; on M4 (setting [1]), 95.4%; on M4 (setting [4]), 95.7%. In addition, the inhibition (commonly the drop in the measured response relative to a control, in per cent) at 0.1 µM is 10% on ADR1B (setting [2]); -1% on CysLT2 (setting [2]); 5% on M4 (setting [2]); 0.1% at CCR9 (setting [6]); -0.8% on CXCR1 (setting [6]); 0.2% at CX3CR1 (setting [6]). The “% Of control specific binding” value on ADR1B (setting [3]) was 100.1% and 79.4%; at CysLT2 (setting [3]), 103.4%; on M4 (setting [3]), 95.1%. Also, the results for the “Agonist Response (% of Control)” value on CCR9 (setting [5]), at CXCR1 (setting [5]) and on CX3CR1 (setting [5]) were 95.2%, 105.5% and 105.4%, respectively. The activity at 0.1 µM on CCR9 (setting [7]) is 102%; on CCR9 (setting [8]), 108%; at CXCR1 (setting [7]), 96.3%; on CXCR1 (setting [8]), 87.1%; on CX3CR1 (setting [7]) it was 107%; on CX3CR1 (setting [8]), 110%.
